Patent US6809119B2, “Branched chain amino acid-dependent aminotransferase inhibitors and their use in the treatment of neurodegenerative diseases” (Warner-Lambert Company LLC, priority 2001, dated 2004)

How the values were obtained:
[1] = molecular target: T1, rat BCAT cytosolic form (rrBCATc) (Rattus norvegicus, UniProt P54690); assay: In vitro coupled enzyme assay, rat BCAT cytosolic form; assay type: biochemical; settings: inhibition of recombinant rat BCATc; coupled glutamate dehydrogenase/NADH assay, 37° C., pH 7.8
T1 construct: inferred from purification on a Ni-charged chelating column with imidazole elution; made in house; host or cells: E. coli BL21(DE3)
T1 sequence (P54690 1-411): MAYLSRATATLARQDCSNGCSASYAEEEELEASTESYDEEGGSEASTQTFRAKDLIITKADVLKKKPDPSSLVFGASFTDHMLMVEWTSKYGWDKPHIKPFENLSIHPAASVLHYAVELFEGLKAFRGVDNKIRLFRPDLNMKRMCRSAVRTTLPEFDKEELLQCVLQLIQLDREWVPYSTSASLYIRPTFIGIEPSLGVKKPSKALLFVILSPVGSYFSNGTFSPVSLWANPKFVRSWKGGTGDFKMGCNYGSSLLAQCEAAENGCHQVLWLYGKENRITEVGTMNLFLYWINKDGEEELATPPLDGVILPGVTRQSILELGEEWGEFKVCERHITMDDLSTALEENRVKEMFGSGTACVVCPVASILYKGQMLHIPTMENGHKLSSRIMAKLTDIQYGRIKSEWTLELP
Protocol: (§1) In vitro enzyme assay: human Branched Chain Amino Acid Aminotransferase cytosolic form (hBCATc) and mitochondrial form (hBCATm) as well as rat BCAT cytosolic form were assayed at 37° C. in 25 mM phosphate buffer pH 7.8. In addition, 2 mM DTT and 12.5 mM EDTA were added to the assay mixture. A coupling enzyme assay was used to monitor the production of glutamate. The formation of NADH from NAD+at […] was followed on a 96-well plate Molecular Devices plate reader. The following components were used in this coupled assay: 4 mM ADP, 1 mM NAD+, 750 μM L-Leucine, 500 μM a-ketoglutarate, 10 μM pyridoxal phosphate, 1 unit glutamate dehydrogenase, and 1.25 μg of the appropriate BCAT enzyme. Inhibitions by compounds were assayed by adding various concentrations to this coupled assay procedure as a DMSO stock up to a 5% v/v DMSO/buffer ratio.
(§2) Enzyme Preparation: humanBCATc and ratBCATc were expressed in BL21(DE3) cells. A growing culture of cells was induced with 1 mM IPTG at room temperature overnight. These cells were harvested by centrifugation at 10,000 g for 20 minutes. The supernatant was discarded, and the cells were stored at −80° C. until needed. The protein was purified by the following method. The cell paste was resuspended in extraction buffer (0.1 M phosphate, pH 8.0, with 0.01 M Tris-HCL and 5 mM TCEP and then lysed on a French Press at 1000 psi. The lysate was centrifuged at 10,000 g for 15 minutes, and the pellet was discarded. The supernatant was loaded onto a Hitrap Chelating column previously charged with 0.1 M NiSO4 and washed with 3 to 4 column volumes of extraction buffer. The column was then washed with 0.01 Tris, pH 7.5, 10% glycerol, 150 mM NaCl, 5 mM TCEP for two column volumes. The column was then further washed with two column volumes of 0.1 M phosphate, pH 6.0, 0.01 M Tris, 10% glycerol, and 750 mM NaCl. Finally, the column was washed with two column volumes of the same buffer plus 50 mM imidazole. The BCAT enzyme was then eluted with the same buffer but with 350 mM imidazole. The eluant was then dialyzed overnight against 10 mM phosphate buffer pH 8.0, 10% glycerol, and 5 mM TCEP. The dialyzed protein was then loaded onto a Q-sepharose column and eluted using a salt gradient. Active fractions were collected and further purified on a Superose-12 column to yield pure BCAT protein.

[2] = molecular target: T2, human Branched Chain Amino Acid Aminotransferase cytosolic form (hBCATc) (Homo sapiens, UniProt P54687); assay: In vitro coupled enzyme assay, human BCAT cytosolic form; assay type: biochemical; settings: inhibition of recombinant human BCATc; coupled glutamate dehydrogenase/NADH assay, 37° C., pH 7.8; read-out: rhBCATc
T2 construct: inferred from purification on a Ni-charged chelating column with imidazole elution; made in house; host or cells: E. coli BL21(DE3)
T2 sequence (P54687 1-386): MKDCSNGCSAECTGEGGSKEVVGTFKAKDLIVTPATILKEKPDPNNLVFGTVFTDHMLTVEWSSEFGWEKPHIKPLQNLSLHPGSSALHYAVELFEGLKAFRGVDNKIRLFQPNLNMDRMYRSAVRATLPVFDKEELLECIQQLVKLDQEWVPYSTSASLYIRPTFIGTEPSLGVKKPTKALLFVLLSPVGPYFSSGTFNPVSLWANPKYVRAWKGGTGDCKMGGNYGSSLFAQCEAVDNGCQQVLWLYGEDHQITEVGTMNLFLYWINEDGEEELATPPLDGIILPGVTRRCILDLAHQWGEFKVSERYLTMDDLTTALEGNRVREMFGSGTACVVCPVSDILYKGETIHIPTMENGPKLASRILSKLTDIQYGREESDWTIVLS
Protocol: as §1, §2

| IC50 [1] [µM] | IC50 [2] [µM] | melting point | SMILES |
| --- | --- | --- | --- |
| 28.1 | 60 | 171 to 173 °C | Nc1ccc(C(=O)NNS(=O)(=O)c2ccccc2)cc1 [Example 2, Benzoic acid, 4-amino-2-(phenylsulfonyl)hydrazide] |
| – | 4.9 | 140.8 to 144.5 °C | O=C(NNS(=O)(=O)c1ccccc1)c1ccc(NS(=O)(=O)c2ccccc2)cc1 [Example 15] |
| 4.4 | 27 | 214 to 215 °C | O=C(NNS(=O)(=O)c1ccccc1)c1ccc(NCc2ccccc2)cc1 [Example 16, 4-Benzylamino-benzoic acid 2-(phenylsulfonyl)hydrazide] |
| 1.2 | 9.5 | – | Cc1cccc(S(=O)(=O)NNC(=O)c2ccc(Oc3ccccc3)cc2)c1 [Example 18, 4-Phenoxybenzoic acid, 2-[(3-methyl)phenylsulfonyl]hydrazide] |
| 2.8 | 28 | – | O=C(NNS(=O)(=O)c1cccc(Br)c1)c1ccc(Oc2ccccc2)cc1 [Example 19, 4-Phenoxybenzoic acid, 2-[3-bromophenylsulfonyl]hydrazide] |
| 5.9 | 35 | – | O=C(NNS(=O)(=O)c1ccccc1Cl)c1ccc(Oc2ccccc2)cc1 [Example 20, 4-Phenoxybenzoic acid, 2-[2-chlorophenylsulfonyl]hydrazide] |
| 2.9 | 28 | – | O=C(NNS(=O)(=O)c1ccccc1OC(F)(F)F)c1ccc(Oc2ccccc2)cc1 [Example 21, 4-Phenoxybenzoic acid, 2-[2-(trifluoromethoxy)phenylsulfonyl]hydrazide] |
| 0.43 | 17 | – | O=C(NNS(=O)(=O)c1ccccc1C(F)(F)F)c1ccc(Oc2ccccc2)cc1 [Example 23, 4-Phenoxybenzoic acid, 2-[2-trifluorophenylsulfonyl]hydrazide] |
| 1.2 | 57 | 197 to 199 °C | CC(C)(C)c1ccc(C(=O)NNS(=O)(=O)c2ccccc2)cc1 [Example 24, 4-(1,1-Dimethylethyl)-benzoic acid, 2-(phenylsulfonyl)hydrazide] |
| 1.5 | 16 | 216 to 219 °C | O=C(NNS(=O)(=O)c1ccccc1)c1ccc(-c2ccccc2)cc1 [Example 25, [1,1′-Biphenyl]-4-carboxylic acid, 2-(phenylsulfonyl)hydrazide] |
| 2.2 | 34 | – | O=C(NNS(=O)(=O)c1ccccc1)c1cccc(Oc2ccccc2)c1 [Example 26, 3-Phenoxybenzoic acid, 2-(phenylsulfonyl)hydrazide] |
| – | 50 | 149 to 150 °C | O=C(NNS(=O)(=O)c1ccccc1)c1ccccc1Oc1ccccc1 [Example 27, 2-Phenoxybenzoic acid, 2-(phenylsulfonyl)hydrazide] |
| 1.5 | 37 | – | O=C(NNS(=O)(=O)c1ccccc1)c1ccc(Oc2ccccc2)cc1 [Example 28, 4-Phenoxybenzoic acid, 2-(phenylsulfonyl)hydrazide] |
| 48 | 26 | 159 to 160 °C | O=C(NNS(=O)(=O)c1ccccc1)c1ccc(OCc2ccccc2)cc1 [Example 29] |
| – | 2.8 | 164.3 to 164.9 °C | COc1ccc(S(=O)(=O)Nc2ccc(C(=O)NNS(=O)(=O)c3ccccc3)cc2)cc1 [Example 30, Benzoic acid, 4-[[(4-methoxyphenyl)sulfonyl]amino]-, 2-(phenylsulfonyl)hydrazide] |
| 1.3 | 27.6 | 175 °C (dec.) | O=C(NNS(=O)(=O)c1ccccc1)c1ccc(C#Cc2ccccc2)cc1 [Example 32, 4-Phenacetylenyl-benzoic acid, 2-(phenylsulfonyl)hydrazide] |
| 0.25 | 14.3 | 158 to 159 °C | O=C(NNS(=O)(=O)c1ccccc1)c1ccc(CCc2ccccc2)cc1 [Example 33, Phenethyl-benzoic acid, 2-(phenylsulfonyl)hydrazide] |
| – | 32.3 | 180 to 182 °C | O=C(NNS(=O)(=O)c1ccccc1)c1ccc(C#CCC2CCCCC2)cc1 [Example 34, 4-(3-Cyclohexyl-1-propynyl)-benzoic acid, 2-(phenylsulfonyl)hydrazide] |
| 2.2 | 43.5 | 96 to 97 °C | O=C(NNS(=O)(=O)c1ccccc1)c1ccc(C#CC2(O)CCCCC2)cc1 [Example 35] |
| 0.25 | 15.4 | 158 to 159 °C | O=C(NNS(=O)(=O)c1ccccc1)c1ccc(CCC2(O)CCCCC2)cc1 [Example 36] |
| 4.3 | 34.8 | 160 °C (dec.) | CC(C)(C)C#Cc1ccc(C(=O)NNS(=O)(=O)c2ccccc2)cc1 [Example 37, 4-(3,3-Dimethyl-1-butynyl)benzoic acid, 2-(phenylsulfonyl)hydrazide] |
| 0.25 | 9.5 | 168 to 169 °C | CC(C)(C)CCc1ccc(C(=O)NNS(=O)(=O)c2ccccc2)cc1 [Example 38, 4-(3,3-Dimethyl-1-butyl)-benzoic acid, 2-(phenylsulfonyl)hydrazide] |
